Columns and labels:
serotonin-2 receptor = molecular target: T1, serotonin-2 receptor (Rattus norvegicus, UniProt P14842); experiment: Affinity for serotonin-2 receptor: 3H-spiperone binding assay; details: rat cerebral cortex synaptosomal membranes; 3H-spiperone 0.5 nM; 37° C., 20 min
T1 construct: from tissue; host or cells: rat cerebral cortex, synaptosomal membranes
Protocol: (§1) Experiment 3 Affinity for serotonin receptor
(2) Affinity for serotonin-2 receptor: ^3 H-spiperone bindig assay
The preparation of synaptosomal membranes and binding assay were performed according to the method of Peroutka and Snyder (Molecular Pharmacology, vol. 16, p. 687, 1979).
Rat cerebral cortex which was maintained in a freezed state was homogenized in 20-fold volumes of ice-cold 0.32 M sucrose and centrifugated at 1,000 g for 10 minutes at 0° C. The supernatant was centrifugated at 50,000 g for 15 minutes at 0° C. The obtained pellets were homogenized in 20-fold volumes of ice-cold 50 mM Tris-HCl buffer (pH 7.5). The mixture was incubated at 37° C. for 10 minutes, and further centrifugated at 50,000 g for 15 minutes at 0° C. The suspension of synaptosomal membrane was prepared by homogenizing the obtained pellets in 60-fold volumes of the buffer mentioned above containing 1.1 mM ascorbic acid, 4 mM calcium chloride and 10 μM pargyline.
To 900 μl of the suspension of synaptosomal membrane were added 50 μl of ^3 H-spiperone (final concentration : 0.5 nM) and 50 μl of the test compound solution or the solvent, and then incubated at 37° C. for 20 minutes. After the completion of incubation, 5 ml of ice-cold buffer as mentioned above was added. Immediately thereafter, the mixture was filtered with suction through Whatman GF/B filter. The filter was washed twice with 5 ml of the same buffer as mentioned above and the radioactivity on the filter was measured by a liquid scintillation counter.

[1] = tested on: apomorphine-induced motility; experiment: Experiment 1 Anti-apomorphine action (motility, Varimex); format: in vivo, male dd-strain mice; details: Mus musculus, po; apomorphine 0.5 mg/kg s.c. 1 h after compound; motility 20 min; dose lowering motility of control by 50%
Protocol: Experiment 1 Anti-apomorphine action
Groups of 3 male dd-strain mice (4 groups/dose) were used. Test compounds were orally administered and an hour later, 0.5 mg/kg of apomorphine was subcutaneously administered. Immediately thereafter, motility was measured with the aid of Varimex (manufactured by Columbus Co.) for 20 minutes. The ED50 values, the dose of test compound required to lower the motility of the control group by 50%, were graphically calculated.

[2] = tested on: serotonin-induced head-twitch; experiment: Experiment 2 Anti-serotonin action (head-twitch method in mice); format: in vivo, male dd-strain mice; details: Mus musculus, po; serotonin 40 μg/0.02 ml i.c.v. 1 h after compound; head-twitch counted 5 min; probit method
Protocol: Experiment 2 Anti-serotonin action (head-twitch method in mice)
Groups of 8-30 male dd-strain mice were used. The test compounds were orally administered and an hour later, 40 μg/0.02 ml of serotonin was intracerebroventricularly administered. Ten minutes thereafter, the numbers of head-twitch were measured for 5 minutes. The ED50 values calculated by the probit method considering the number of head-twitch induced by the administration of serotonin with less than once as the inhibitory action by the test compound.

serotonin-1 receptor = molecular target: T2, serotonin-1 receptor (Rattus norvegicus, UniProt P19327); experiment: Affinity for serotonin-1 receptor: 3H-8-OH-DPAT binding assay; details: rat hippocampus synaptosomal membranes; 3H-8-OH-DPAT 0.2 nM; pH 7.4, 37° C., 10 min
T2 sequence (P19327 1-422): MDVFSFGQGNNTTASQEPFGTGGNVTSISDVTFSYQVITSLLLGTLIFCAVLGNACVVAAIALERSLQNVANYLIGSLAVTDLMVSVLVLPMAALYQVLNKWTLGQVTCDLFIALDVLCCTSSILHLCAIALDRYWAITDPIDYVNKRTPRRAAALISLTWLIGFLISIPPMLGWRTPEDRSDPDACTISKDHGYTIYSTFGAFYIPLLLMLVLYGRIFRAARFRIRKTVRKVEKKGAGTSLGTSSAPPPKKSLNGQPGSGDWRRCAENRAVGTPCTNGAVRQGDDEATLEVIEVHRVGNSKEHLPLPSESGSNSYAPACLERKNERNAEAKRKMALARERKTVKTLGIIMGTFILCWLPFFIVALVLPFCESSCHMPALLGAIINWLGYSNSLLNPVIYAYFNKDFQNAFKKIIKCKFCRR
Protocol: as §1
(1) Affinity for serotonin-1 receptor: ^3 H-8-hydroxy-2-(dipropylamino)tetralin(^3 H-8-OH-DPAT) binding assay
Preparation of synaptosomal membranes and ^3 H-8-OH-DPAT binding assay were performed according to the method of Hall et al(Journal of Neurochemistry, vol. 44, p. 1685, 1985).
Rat hyppocampus which was maintained in a freezed state was homogenized in 40-fold volumes of ice-cold 50 mM Tris-HCl buffer (pH 7.4) and centrifugated at 500 g for 10 minutes at 0° C. Further, the supernatant was centrifugated at 40,000 g for 20 minutes at 0° C. and the pellets thus obtained were homogenized in 40-fold volumes of the same buffer as mentioned above, and then incubated at 37° C. for 10 minutes. After incubation, the suspension was centrifugated at 40,000 g for 20 minutes at 0° C. The obtained pellets were washed by repeating twice the procedures of homogenization in the above-mentioned buffer and centrifugation. The suspension of synaptosomal membranes was prepared by homogenizing the pellets finally obtained in 60-fold volumes of 50 mM Tris-HCl buffer (pH 7.4) containing 1 mM manganese chloride.
To 900 μl of the membrane suspension were added 50 μl of ^3 H-8-OH-DPAT solution (final concentration: 0.2 nM), and 50 μl of the test compound solution or the solvent and the mixture was incubated at 37° C. for 10 minutes. After incubation, 5 ml of ice-cold 50 mM Tris-HCl buffer (pH 7.4) was added, and immediately thereafter, the mixture was filtered with suction through Whatman GF/B filter. The filter was washed twice with 5 ml of the same buffer as mentioned above and the radioactivity on the filter was measured by a liquid scintillation counter.

[3] = Experiment 4 Cataleptogenic action; format: in vivo, female Wistar-strain rats; details: rat, in vivo, po; orally; peak time of catalepsy within 9 hours; probit method
Protocol: (§2) Then, the cataleptogenic action of the compound of Example 15 was studied for the purpose of measuring the degree of the extrapyramidal side effect. […]
(§3) Experiment 4 Cataleptogenic action
(§4) Groups of 10 female Wistar-strain rats were used. Catalepsy was measured by the partly modified method of Simon et al (Journal of Pharmacy and Pharmacology, vol. 22, P. 546, 1970). The front paws of the rats were placed gently on a vertical grid (4 mm diameter, 9 cm height).
(§5) After the compound of Example 15 was orally administered, catalepsy was measured with the passage of time in 9 hours.

catalepsy = experiment: Experiment 4 Cataleptogenic action; format: in vivo, female Wistar-strain rats; details: rats, index of extrapyramidal side effects
Protocol: as §2, §3, §4, §5

T1 sequence (P14842 whole entry): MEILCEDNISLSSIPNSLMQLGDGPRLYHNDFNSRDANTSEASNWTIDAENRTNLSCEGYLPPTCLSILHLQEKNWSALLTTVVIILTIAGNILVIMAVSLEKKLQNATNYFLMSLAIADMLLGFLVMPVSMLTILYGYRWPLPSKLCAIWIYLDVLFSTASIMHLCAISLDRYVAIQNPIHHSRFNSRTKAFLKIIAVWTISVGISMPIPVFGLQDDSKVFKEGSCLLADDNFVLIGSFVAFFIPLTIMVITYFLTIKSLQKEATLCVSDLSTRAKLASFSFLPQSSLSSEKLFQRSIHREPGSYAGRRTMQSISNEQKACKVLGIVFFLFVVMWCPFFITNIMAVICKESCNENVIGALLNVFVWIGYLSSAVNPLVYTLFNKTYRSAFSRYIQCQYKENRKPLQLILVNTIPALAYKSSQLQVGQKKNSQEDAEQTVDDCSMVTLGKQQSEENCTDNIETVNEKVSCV

Row | Structure (SMILES) | Ki (serotonin-2 receptor) | ED50 [1] | ED50 [2] | Ki (serotonin-1 receptor) | ED50 [3] | cataleptogenic action (in words) (catalepsy)
1 | Cc1cccc(N2CCN(CCCCc3ccc(C4CCC(=O)N4)cc3)CC2)c1 (centres unmarked) [Example 1, 5-[4-(4-(4-(3-methylphenyl)piperazin-1-yl)butyl)phenyl]pyrrolidin-2-one] | 23 nM | 13 mg/kg | 0.53 mg/kg | 0.61 nM | – | –
2 | O=C1CCC(c2ccc(CCCN3CCN(c4ccccc4)CC3)cc2)N1 (centres unmarked) [Example 9, 5-[4-(3-(4-phenylpiperazin-1-yl)propyl)phenyl]pyrrolidin-2-one] | 250 nM | 9.5 mg/kg | 2.4 mg/kg | 4.5 nM | – | –
3 | Cl.O=C1CCC(c2ccc(CCN3CCN(c4cccc(C(F)(F)F)c4)CC3)cc2)N1 (centres unmarked) [Example 2, 5-[4-(2-(4-(3-trifluoromethylphenyl)piperazin-1-yl)ethyl)phenyl]pyrrolidin-2-one hydrochloride] | 78 nM | 15 mg/kg | 0.15 mg/kg | 0.31 nM | – | –
4 | Cl.Cl.O=C1CCC(c2ccc(CCCCN3CCN(c4cccc(C(F)(F)F)c4)CC3)cc2)N1 (centres unmarked) [Example 15, 5-[4-(4-(4-(3-trifluoromethylphenyl)piperazin-1-yl)butyl)phenyl]pyrrolidin-2-one dihydrochloride] | 63 nM | 4.2 mg/kg | 0.32 mg/kg | 0.4 nM | 250 mg/kg | very weak cataleptic action
5 | COc1ccccc1N1CCN(CCCCc2ccc(C3CCC(=O)N3)cc2)CC1 (centres unmarked) [Example 7, 5-[4-(4-(4-(2-methoxyphenyl)piperazin-1-yl)butyl)phenyl]pyrrolidin-2-one] | 480 nM | 2.1 mg/kg | 3.5 mg/kg | 0.28 nM | – | –
6 | O=C1CCC(c2ccc(CCCCN3CCN(c4ccc(F)cc4)CC3)cc2)N1 (centres unmarked) [Example 6, 5-[4-(4-(4-(4-fluorophenyl)piperazin-1-yl)butyl)phenyl]pyrrolidin-2-one] | 66 nM | 4.2 mg/kg | 2.2 mg/kg | 4.7 nM | – | –

From patent US4931443A, “Piperazine compound and pharmaceutical use thereof” (Yoshitomi Pharmaceutical Industries, Ltd., priority 1986, dated 1990)
